Results on eleven compounds are retold here after PubChem BioAssay (NCI).

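Assay format: 96-well plates, 48-hour exposure. GI50 marks 50% less growth. Definition used: TGI = concentration required for complete inhibition of growth.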 Residues, ends and D or L forms follow the SMILES beside them. *: point of attachment. Cbz = O=C(OCc1ccccc1)*

Among the test systems are SK-MEL-28 melanoma; ACHN renal; DU-145 prostate; SK-OV-3 ovarian; RXF 393 renal; UACC-257 melanoma; NCI-H23 lung; MDA-MB-435.
What all share (experiment): NCI anticancer screen, dose series, 48 h

Regarding `Cn1cc(C2=C(c3cn(CCCCCO)c4ccccc34)C(=O)NC2=O)c2ccccc21`, the GI50 with SK-MEL-28 melanoma is 4.92 µM; in the assay with ACHN renal it was 6.82 µM; in the assay on DU-145 prostate it was 8.83 µM; in the assay on SK-OV-3 ovarian it was 4.92 µM; with RXF 393 renal, 3.51 µM; in the assay on UACC-257 melanoma, 9.48 µM. The results for the GI50 in the assay with NCI-H23 lung and in the assay on MDA-MB-435 were 5.34 µM and 0.815 µM, respectively. Further, the TGI is 15.7 µM in the assay on SK-MEL-28 melanoma; 24.8 µM in the assay on ACHN renal; more than 25 µM with DU-145 prostate; 17.8 µM in the assay on SK-OV-3 ovarian; 9.61 µM with RXF 393 renal; more than 25 µM with UACC-257 melanoma. Further, the values for the TGI in the assay with NCI-H23 lung and with MDA-MB-435 were 16.5 µM and 4.4 µM, respectively.

Regarding `O=C(O)c1cn(C2CC2)c2cc(N3CCN(Cc4c(O)ccc5ccccc45)CC3)c(F)cc2c1=O`, the GI50 in the assay with SK-MEL-28 melanoma was 6.32 µM; in the assay on ACHN renal, 29.6 µM; in the assay on DU-145 prostate it was 3.78 µM; in the assay with SK-OV-3 ovarian, 11.7 µM; with RXF 393 renal it was 2.68 µM; with UACC-257 melanoma it was more than 100 µM. Also, the GI50 with NCI-H23 lung is 4.63 µM; in the assay with MDA-MB-435 it was 4.18 µM. In addition, the TGI in the assay on SK-MEL-28 melanoma is more than 100 µM; in the assay on ACHN renal, more than 100 µM; in the assay on DU-145 prostate, more than 100 µM; with SK-OV-3 ovarian, more than 100 µM; with RXF 393 renal, 8.34 µM; with UACC-257 melanoma, more than 100 µM. For the same compound, the TGI with NCI-H23 lung and in the assay with MDA-MB-435 was more than 100 µM throughout.

As for `COc1cc2nc3cc([N+](=O)[O-])ccc3c(NCCNCC(C)O)c2cc1OC` (stereo not given), the GI50 with ACHN renal was 0.614 µM; with DU-145 prostate, 0.445 µM; in the assay on SK-OV-3 ovarian it was 1.98 µM; in the assay on RXF 393 renal it was 0.641 µM; with UACC-257 melanoma, 1.63 µM; in the assay with NCI-H23 lung it was 0.554 µM. For the same compound, the GI50 with MDA-MB-435 is 0.572 µM. The TGI with ACHN renal was determined as 3.93 µM; in the assay on DU-145 prostate it was 2.2 µM; in the assay with SK-OV-3 ovarian it was 5.35 µM; with RXF 393 renal, 2.34 µM; in the assay with UACC-257 melanoma, 3.67 µM; in the assay with NCI-H23 lung it was 3.07 µM. In the assay with MDA-MB-435, this compound gave a TGI of 1.98 µM.

Take `CN(C)c1ccccc1[CH2][Ga]([Cl])[CH2]c1ccccc1N(C)C`: the GI50 in the assay with ACHN renal was 1.43 µM; with DU-145 prostate, 1.61 µM; in the assay with SK-OV-3 ovarian it was 1.71 µM; in the assay on UACC-257 melanoma it was 1.51 µM; with NCI-H23 lung, 0.595 µM; with MDA-MB-435, 1.61 µM. Moreover, the TGI was 3.12 µM in the assay on ACHN renal; 3.2 µM in the assay with DU-145 prostate; 3.8 µM with SK-OV-3 ovarian; 3.05 µM in the assay with UACC-257 melanoma; 2.06 µM in the assay on NCI-H23 lung; 3.12 µM in the assay with MDA-MB-435.

In the case of `COc1cc(CCNC(=O)OC(C)(C)C)c2c(c1OC)SSSSS2`, the GI50 was 1.9 µM in the assay on SK-MEL-28 melanoma; 2.56 µM in the assay on ACHN renal; 2.8 µM in the assay on SK-OV-3 ovarian; 2.93 µM in the assay with UACC-257 melanoma; 3.56 µM in the assay on NCI-H23 lung; 2.28 µM in the assay on MDA-MB-435. For the same compound, the TGI in the assay with SK-MEL-28 melanoma was determined as 3.68 µM; in the assay on ACHN renal, 4.93 µM; with SK-OV-3 ovarian it was 6.05 µM; with UACC-257 melanoma it was 5.48 µM; in the assay on NCI-H23 lung, 20.3 µM; with MDA-MB-435, 4.78 µM.

As to `O=C(O)Cc1ccc(N=Nc2c(O)c(C(=O)O)cc3ccccc23)cc1`, the TGI in the assay with SK-MEL-28 melanoma, in the assay on ACHN renal, in the assay on DU-145 prostate, in the assay on SK-OV-3 ovarian, in the assay on RXF 393 renal and in the assay on UACC-257 melanoma was more than 100 µM throughout. Also, in the assay with MDA-MB-435, the TGI is more than 100 µM.

Consider `O=S(=O)(NCCCNc1cc(-c2cn(-c3ccccc3)nc2-c2cccc(O)c2)ccn1)c1ccc(Br)cc1`, for which the GI50 in the assay on SK-MEL-28 melanoma is 1.97 µM; with ACHN renal, 2.97 µM; in the assay with DU-145 prostate, 2.45 µM; with SK-OV-3 ovarian, 2.76 µM; in the assay with RXF 393 renal, 1.09 µM; with NCI-H23 lung it was 2.19 µM. In addition, the GI50 with MDA-MB-435 was 1.7 µM. Moreover, the TGI came to 4.31 µM in the assay with SK-MEL-28 melanoma; 15.4 µM in the assay with ACHN renal; 8.08 µM with DU-145 prostate; 9.3 µM with SK-OV-3 ovarian; 3.5 µM in the assay with RXF 393 renal; 12.1 µM with NCI-H23 lung. The TGI in the assay on MDA-MB-435 was 3.53 µM.

On to `CC(C)C[C@@H](C=O)NC(=O)[C@H](CC(C)C)NC(=O)[C@H](CC(C)C)NC(=O)OCc1ccccc1` (Cbz-Leu-Leu-Leu-aldehyde), for which the GI50 in the assay with SK-MEL-28 melanoma is 0.419 µM; with ACHN renal, 0.357 µM; in the assay on DU-145 prostate, 0.53 µM; in the assay on SK-OV-3 ovarian, 0.614 µM; with RXF 393 renal it was 0.199 µM; with UACC-257 melanoma, 0.251 µM. Also, the GI50 in the assay with NCI-H23 lung was 0.422 µM. Moreover, the TGI in the assay on SK-MEL-28 melanoma is 11.6 µM; with ACHN renal it was 1.98 µM; with DU-145 prostate, 10.6 µM; with SK-OV-3 ovarian, 5.34 µM; with RXF 393 renal, 0.371 µM; in the assay with UACC-257 melanoma, 0.628 µM. The TGI with NCI-H23 lung was found to be 2.99 µM.

Take `NCCSC(c1ccccc1)(c1ccccc1)c1ccccc1`: the GI50 with SK-MEL-28 melanoma is 1.64 µM; in the assay with ACHN renal it was 1.48 µM; with DU-145 prostate, 2.32 µM; in the assay on SK-OV-3 ovarian, 0.512 µM; with UACC-257 melanoma, 1.13 µM; with NCI-H23 lung it was 3.38 µM. In addition, in the assay with MDA-MB-435, the GI50 is 0.242 µM. Further, the TGI with SK-MEL-28 melanoma was 3.34 µM; in the assay on ACHN renal, 11.2 µM; in the assay with DU-145 prostate, 6.07 µM; in the assay with SK-OV-3 ovarian, 12.5 µM; with UACC-257 melanoma, 2.68 µM; in the assay on NCI-H23 lung, 13.6 µM. In the assay with MDA-MB-435, this compound showed a TGI of 0.55 µM.

As to `NC(N)=N/N=C/c1c(-c2cccnc2)nc2sc(Cl)cn12`, the GI50 was 10.3 µM in the assay with ACHN renal; 17.2 µM in the assay with RXF 393 renal; 20.4 µM in the assay with UACC-257 melanoma; 16.1 µM with NCI-H23 lung; 16.6 µM with MDA-MB-435. The TGI in the assay with ACHN renal was determined as 21.9 µM; in the assay on RXF 393 renal, 36.7 µM; with UACC-257 melanoma, 40.5 µM; with NCI-H23 lung it was 31.7 µM; in the assay with MDA-MB-435, 30.5 µM.

In the case of `COc1ccc2nc3cccc([N+](=O)[O-])c3c(NC(C)CN(C)C)c2c1` (stereo not given), the GI50 is 3.05 µM with SK-MEL-28 melanoma; 1.58 µM in the assay with ACHN renal; 1.89 µM in the assay with DU-145 prostate; 2.62 µM with SK-OV-3 ovarian; 2.67 µM in the assay with UACC-257 melanoma; 2.1 µM in the assay with NCI-H23 lung. For the same compound, the TGI with ACHN renal was 7.23 µM; in the assay with DU-145 prostate, 14.2 µM; with SK-OV-3 ovarian it was 9.14 µM; in the assay on UACC-257 melanoma it was 7.02 µM; in the assay on NCI-H23 lung, 5.33 µM.
